pEC50: −log10 of the molar value. Converted amounts (≈) assume the structure as drawn.
Legend:
[1] = Drug excretion in po dosed human watery feces; type: ADME, organism-based; settings: in vivo
[2] = tested on: Giardia intestinalis; experiment: In vivo antiparasitic activity against Giardia lamblia infected in human at 250 mg administered 2 to 3 times per day daily for 5 to 10 days; type: functional, Giardia duodenalis
[3] = Drug excretion in po dosed human feces; type: ADME, organism-based; settings: in vivo
[4] = tested on: Trichomonas vaginalis; experiment: Antiparasitic activity against Trichomonas vaginalis clinical isolate after 48 hrs under aerobic conditions by inverted phase contrast microscopic analysis; type: functional
[5] = tested on: Helicobacter pylori; experiment: Antibacterial activity against resistant Helicobacter pylori; type: functional
[6] = tested on: Clostridioides difficile; experiment: Antibacterial activity against Clostridium difficile; type: functional
[7] = tested on: Helicobacter pylori; experiment: Antibacterial activity against Helicobacter pylori after 72 hrs by E-test; type: functional
[8] = tested on: Helicobacter pylori; experiment: Antibacterial activity against susceptible Helicobacter pylori; type: functional
[9] = tested on: Giardia intestinalis; experiment: In vivo antiparasitic activity against Giardia lamblia infected in human at 2000 to 2400 mg administered as single dose; type: functional, Giardia duodenalis
[10] = tested on: Entamoeba histolytica; experiment: Antiparasitic activity against Entamoeba histolytica clinical isolate after 24 hrs under anaerobic cinditions; type: functional
[11] = tested on: Trichomonas vaginalis; experiment: Antiparasitic activity against Trichomonas vaginalis BRIS/92/STDL/B7268 clinical isolate after 48 hrs under anaerobic condition; type: functional
[12] = tested on: Trypanosoma cruzi; experiment: Antiparasitic activity against Trypanosoma cruzi infected in human assessed as cure rate under chronic condition; type: functional
[13] = tested on: Trypanosoma cruzi; experiment: Antiparasitic activity against Trypanosoma cruzi infected in human assessed as cure rate under acute condition; type: functional
[14] = tested on: Leishmania donovani; experiment: Antileishmanial activity against Leishmania donovani HU3 infected in po dosed BALB/c mouse administered for 5 consecutive days; type: functional
[15] = tested on: Leishmania donovani; experiment: Antileishmanial activity against Leishmania donovani LV9 amastigotes infected in mouse peritoneal macrophages after 72 hrs; type: functional; settings: LV9, 72 h
[16] = tested on: Giardia intestinalis; experiment: In vivo antiparasitic activity against Giardia lamblia infected in human assessed as median efficacy at 2 g administered in adults as single dose; type: functional, Giardia duodenalis
[17] = tested on: Bacteroides fragilis; experiment: Antibacterial activity against Bacteroides fragilis ATCC 23745 after 24 hrs; type: functional; settings: ATCC 23745, 24 h
[18] = tested on: Leishmania donovani; experiment: Antileishmanial activity against Leishmania donovani LV9 amastigotes infected in po dosed BALB/c mouse assessed as reduction in parasite burden dosed on day 7 post-infection administered bid for 5 to 10 days; type: functional
[19] = Half life in plasma (unknown origin); type: ADME, cell-free
[20] = tested on: Helicobacter pylori; experiment: In vivo antibacterial activity against Helicobacter pylori infected in human administered bid for 7 days measured after 30 days post start of the treatment by endoscopic analysis; type: functional
[21] = tested on: Leishmania donovani; experiment: Antileishmanial activity against Leishmania donovani LV9 amastigotes infected in BALB/c mouse assessed as reduction in parasite burden at 200 mg/kg, po administered qd for 5 days; type: functional; settings: 120 h
[22] = tested on: Leishmania donovani; experiment: Antileishmanial activity against Leishmania donovani LV9 amastigotes infected in BALB/c mouse peritoneal macrophages after 72 hrs by resazurin-based fluorescence assay; type: functional; settings: LV9, 72 h
[23] = tested on: Mycobacterium tuberculosis; experiment: Antimycobacterial activity against Mycobacterium tuberculosis; type: functional
[24] = tested on: Leishmania donovani; experiment: Antileishmanial activity against Leishmania donovani LV9 promastigotes after 72 hrs by resazurin-based fluorescence assay; type: functional; settings: LV9, 72 h
[25] = tested on: Giardia intestinalis; experiment: In vivo antiparasitic activity against Giardia lamblia infected in human assessed as median efficacy at 30 mg/kg administered in children as single dose; type: functional, Giardia duodenalis

Cc1ncc([N+](=O)[O-])n1CCO [METRONIDAZOLE]
Drug excretion [1]: 9.3 µg/g
Efficacy [2]: 88%
Drug excretion [3]: 1.2 µg/g
MLC [4]: 2618 µM (≈ 448 µg/mL)
MIC [5]: > 8 µg/mL
MIC90 [6]: 0.2 to 2 µg/mL (≈ 1.17 to 11.7 µM)
MIC [7]: ≥ 256 µg/mL
MIC [8]: 0.25 to 2 µg/mL (≈ 1.46 to 11.7 µM)
Efficacy [9]: 48%
MIC [10]: 12.5 to 25 µM (≈ 2.14 to 4.28 µg/mL)
MLC [11]: 4.25 µg/mL (≈ 24.8 µM)

O=C(Cn1ccnc1[N+](=O)[O-])NCc1ccccc1 [BENZNIDAZOLE]
Activity [12]: 8%
Activity [13]: 76%

C[C@]1(COc2ccc(OC(F)(F)F)cc2)Cn2cc([N+](=O)[O-])nc2O1
ED90 [14]: 3.7 mg/kg

CCCCCCCCCCCCCCCCOP(=O)([O-])OCC[N+](C)(C)C [MILTEFOSINE]
pEC50 [15]: 5.48

Cc1ncc([N+](=O)[O-])n1CC(O)CCl (centres undefined) [ORNIDAZOLE]
Efficacy [16]: 92 - 100%
MIC [17]: 0.8 to 3.7 µM (≈ 0.176 to 0.813 µg/mL)

C[C@]1(COc2ccc(N3CCC(Oc4ccc(OC(F)(F)F)cc4)CC3)cc2)Cn2cc([N+](=O)[O-])nc2O1 [DELAMANID]
pEC50 [15]: 7.06
ED50 [18]: 7.3 mg/kg
ED90 [18]: 21.5 mg/kg

Cc1ncc([N+](=O)[O-])n1CCc1ccncc1 [PANIDAZOLE]
MIC [17]: 0.8 to 3.7 µM (≈ 0.186 to 0.859 µg/mL)

CCS(=O)(=O)CCn1c([N+](=O)[O-])cnc1C [TINIDAZOLE]
Efficacy [16]: 92%
half-life [19]: 720 to 840 min
Activity [20]: >90%
MLC [4]: 1015 µM (≈ 251 µg/mL)
MIC [17]: 0.8 to 3.7 µM (≈ 0.198 to 0.915 µg/mL)

Cn1c([N+](=O)[O-])cnc1COc1ccc(S(C)(=O)=O)cc1 [FEXINIDAZOLE SULFONE]
pEC50 [15]: 5.28

CSc1ccc(OCc2ncc([N+](=O)[O-])n2C)cc1 [FEXINIDAZOLE]
inhibition in vivo at 200 mg/kg [21]: 98%

O=[N+]([O-])c1cn2c(n1)OC[C@H](OCc1ccc(OC(F)(F)F)cc1)C2
pEC50 [22]: 6.03
MIC [23]: > 100 µM
pEC50 [24]: 6.80

Cc1ncc([N+](=O)[O-])n1CC(C)O (centres undefined) [SECNIDAZOLE]
Efficacy [16]: 80 - 100%
Efficacy [25]: 80 - 100%
MIC [17]: 0.8 to 3.7 µM (≈ 0.148 to 0.685 µg/mL)

Source: ChEMBL document CHEMBL4038299, “Nitroimidazoles: Molecular Fireworks That Combat a Broad Spectrum of Infectious Diseases” (J Med Chem, 2017)
